Results on 28 compounds are retold here after patent publication US8946287B2, “Chemotherapeutic flavonoids, and syntheses thereof” (Purdue Research Foundation, priority 2006, dated 2015).

Where two headings read alike, the source gives them in different places. Some results are limits rather than exact numbers.

Data set [1] addresses T1, aromatase (CYP19, BD Biosciences) (Homo sapiens, UniProt P11511).
T1 sequence (P11511 1-503): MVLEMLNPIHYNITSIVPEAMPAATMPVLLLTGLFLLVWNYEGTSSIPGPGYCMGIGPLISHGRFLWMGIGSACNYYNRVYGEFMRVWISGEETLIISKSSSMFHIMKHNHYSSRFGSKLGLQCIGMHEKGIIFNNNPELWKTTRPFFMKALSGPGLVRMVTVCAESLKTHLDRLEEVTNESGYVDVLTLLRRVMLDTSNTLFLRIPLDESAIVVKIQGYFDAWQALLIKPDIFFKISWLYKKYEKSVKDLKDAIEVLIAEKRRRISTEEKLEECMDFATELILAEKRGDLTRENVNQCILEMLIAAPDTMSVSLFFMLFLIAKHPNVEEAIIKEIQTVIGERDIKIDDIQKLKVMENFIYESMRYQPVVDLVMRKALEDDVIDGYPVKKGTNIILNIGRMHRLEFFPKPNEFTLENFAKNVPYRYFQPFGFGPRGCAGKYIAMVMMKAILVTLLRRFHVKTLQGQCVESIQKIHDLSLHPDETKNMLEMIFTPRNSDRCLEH
The data set is described as follows: Assay for inhibition of aromatase activity (fluorescence, dibenzylfluorescein).
Experimental: Aromatase inhibition is quantified by measuring the fluorescent intensity of fluorescein, the hydrolysis product of dibenzylfluorescein by aromatase. In brief, the test substance (10 μL) is pre-incubated with the NADPH regenerating system (90 μL of 2.6 mM NADP^+, 7.6 mM glucose 6-phosphate, 0.8 U/mL glucose-6-phosphate dehydrogenase, 13.9 mM MgCl2, and 1 mg/mL albumin in 10 mL of 50 mM potassium phosphate, pH 7.4) for 10 min at 37° C. before 100 μL of the enzyme and substrate mixture [800 μL enzyme (CYP19, BD Biosciences, San Jose, Calif.), 0.4 μM dibenzylfluorescein and 4 mg/mL albumin in 10 mL of 50 mM potassium phosphate, pH 7.4] are added. Then, the reaction mixture is incubated for 30 min at 37° C. to allow aromatase to generate the product, and quenched with 75 μL 2 N NaOH. After the reaction is terminated, a 5-min shaking followed by a 2-h incubation at 37° C. enhances the noise/background ratio and fluorescence is measured at 485 nm (excitation) and 530 nm (emission). All experiments were performed in duplicate and the average was used for calculation of IC50 values (Table 2). Compounds were tested in comparison to aminogluthethimide used as positive control.

Data set [2] deals with TPA-induced ornithine decarboxylase (ODC) activity in T24 cells. Description: Inhibition of TPA-induced ornithine decarboxylase (ODC) activity in T24 cells. It counts as cell-based. Conditions: Homo sapiens, read-out: IC50, inhibition of TPA-induced ODC activity.
Experimental: Cell Culture. […] T24 cells were cultured in MEM medium (Invitrogen, Carlsbad, Calif.) containing 10% heat-inactivated fetal bovine serum, non-essential amino acids, 1 mM sodium pyruvate (BioWhittaker, Walkersville, Md.), 100 units of penicillin/mL, 100 μg streptomycin/mL and 250 ng amphotericin B/mL (Gibco Invitrogen, Grand Island, N.Y.). […] The cell lines were maintained in a 5% CO2 atmosphere at 37° C. and were routinely tested for mycoplasma contamination.
In brief, cells were plated at an initial density of 2×10^5 cells per well in 24-well plates. […] After an additional 6 h incubation, plates were washed twice with PBS and kept at −85° C. until tested. ODC activity was directly assayed by measuring the release of [^14C]CO2 from L-[1-^14C]-ornithine HCl in the presence of 190 μM nonradioactive ornithine HCl. The amount of radioactivity captured in NaOH-impregnated filter discs was determined by scintillation counting in 24-well plates using a Wallac 1450 Microbeta liquid scintillation counter. Protein was determined according to the Lowry procedure. Interfering dithiothreitol contained in the reaction mixture was destroyed by adding chloramine T (50 μL, 8 mg/mL) to each well (30 min incubation at RT), followed by NaOH (50 μM, 5.7 M) to solubilize the protein. The protein was measured in 96-well plates using an aliquot of the reaction mixture and bovine serum albumin as a standard. The optical density was measured at 660 nm using a BT2000 Microkinetic Reader. The results were calculated as nmol [^14C]CO2/h/mg protein and expressed as a percentage in comparison with a control treated with DMSO and TPA (12-O-tetradecanoylphorbol-13-acetate). Dose-response curves were prepared and the results were expressed as IC50 values in micromolar concentrations.
The test system of data set [3] is HL-60 cells. The data set is described as follows: Induction of differentiation in HL-60 cell line (NBT reduction, 4-day protocol). It counts as cell-based.
Experimental: Cell Culture. […] The cell lines were maintained in a 5% CO2 atmosphere at 37° C. and were routinely tested for mycoplasma contamination.
HL-60 cells were tested using a 4-day protocol. […] In brief, cells in log phase (approximately 10^6 cells/mL) were diluted to 10^5 cells/mL and preincubated overnight (18 h) in 24-well plates to allow cell growth recovery. Then, samples dissolved in DMSO were added, keeping the final DMSO concentration at 0.1% (v/v). Control cultures were treated with the same concentration of DMSO.
Evaluation of NBT reduction was used to assess the ability of sample-treated cells to produce superoxide when challenged with TPA. A 1:1 (v/v) mixture of a cell suspension (10^6 cells) and TPA/NBT solution [2 mg/mL NBT and 1 μg/mL TPA in phosphate buffer saline (PBS)] was incubated for 1 h at 37° C. Then, cells were smeared on glass slides, and counterstained with 0.3% (w/v) safranin O in methanol. Positive cells reduce NBT yielding intracellular black-blue formazan deposits and were quantified by microscopic examination of >200 cells. Results were expressed as a percentage of positive cells.
Data set [4] deals with TPA-induced NF-κB activity in HepG2 cells stably transfected with NF-κB-luciferase plasmid. Description: Inhibition of TPA-induced NF-κB activity in HepG2 cells (NF-κB-luciferase). It counts as cell-based, human.
Experimental: Cell Culture. […] HepG2 human hepatoma cells stably transfected with NF-κB-luciferase plasmid were maintained in Ham's F12 supplemented with 10% heat-inactivated fetal bovine serum, 100 units/mL penicillin G sodium, 100 μg/mL streptomycin sulfate, 1% MEM amino acid and 0.1% insulin. […] The cell lines were maintained in a 5% CO2 atmosphere at 37° C. and were routinely tested for mycoplasma contamination.
Inhibition of TPA-Induced NF-κB Activity in HepG2 Cells. […] In brief, transfected cells were incubated for 48 h in 96-well plates. […] Cells were washed with PBS, lysed using 50 μL 1× Reporter Lysis Buffer (Promega, Madison, Wis.) for 10 min, and the luciferase determination was performed according to the manufacturer's protocol.
Where [5] appears, read: read-out: IC50 (μM), aromatase inhibition, fluorescein from dibenzylfluorescein, 30 min at 37° C., average of duplicates.
Where [6] appears, read: T-24, T24 cells, TPA 200 nM, 6 h incubation.

Broadly, the IC50 is the point on the concentration scale where inhibition reaches its midpoint. `COc1ccc(C2CC(=O)c3ccc(OC)cc3O2)cc1` (racemic) [8j, 7-Methoxy-2-(4-methoxyphenyl)chroman-4-one]: the IC50 in data set [1] was 1.86 ± 0.37 µM.

The term melting point denotes the temperature, or range, at which the solid turns liquid. As to `COc1ccc(C(=O)/C=C/c2ccc(O)c(CC=C(C)C)c2)c(O)c1` [7f, 3-(4-Hydroxy-3-(3-methylbut-2-enyl)phenyl)-1-(2-hydroxy-4-methoxyphenyl)prop-2-en-1-one], the melting point was 80 to 82 °C. In data set [1], this compound registered an IC50 of more than 295 µM.

On to `CC(C)=CCc1cc(/C=C/C(=O)c2ccc(O)cc2O)ccc1O` [7b, 1-(2,4-Dihydroxyphenyl)-3-(4-hydroxy-3-(3-methylbut-2-enyl)phenyl)-prop-2-en-1-one], for which the melting point was found to be 167 °C. Further, the IC50 in data set [1] is more than 308 µM.

Compound `COc1ccc(C(=O)/C=C/c2ccc(OC)c(CC=C(C)C)c2)c(O)c1` [7g, 1-(2-Hydroxy-4-methoxyphenyl)-3-(4-methoxy-3-(3-methylbut-2-enyl)phenyl)prop-2-en-1-one] gave a melting point of 82 to 84 °C. The IC50 in data set [1] was more than 284 µM.

Turning to `COc1ccc2c(c1)OC(c1ccc(OCC=C(C)C)cc1)CC2=O` (racemic) [8k, 7-Methoxy-2-(4-(3-methylbut-2-enyloxy)phenyl)chroman-4-one], the melting point was in the range of 108 to 110 °C.

Take `COc1ccc(C(=O)C=Cc2ccc(OCC=C(C)C)cc2)c(O)c1` [7k, 1-(2-Hydroxy-4-methoxyphenyl)-3-(4-(3-methylbut-2-enyloxy)phenyl)prop-2-en-1-one]: the melting point lay in the range of 95 to 97 °C. The same compound had an IC50 in data set [1] of more than 271 µM.

`COc1ccc(C(=O)/C=C/c2cccc(CC=C(C)C)c2)c(O)c1` [7i, 1-(2-Hydroxy-4-methoxyphenyl)-3-(3-(3-methylbut-2-enyl)phenyl)prop-2-en-1-one] yielded an IC50 in data set [1] of more than 310 µM.

As for `COc1ccc2c(c1)OC(c1ccc(O)c(CC=C(C)C)c1)CC2=O` (racemic) [8f, 2-(4-Hydroxy-3-(3-methylbut-2-enyl)phenyl)-7-methoxychroman-4-one], the IC50 in data set [1] amounted to 4.75 ± 0.61 µM.

As for `COc1cc2c(cc1OC)[C@@H]1C(=O)c3ccc4c(c3O[C@@H]1CO2)C=CC(C)(C)O4` [deguelin], in data set [2] (T-24, 6 h), the IC50 came to 0.1 µM.

In data set [1], `COc1ccc(C2CC(=O)c3ccc(O)cc3O2)cc1CC=C(C)C` (racemic) [8d, 7-Hydroxy-2-(4-methoxy-3-(3-methylbut-2-enyl)phenyl)chroman-4-one] had an IC50 of 4.08 ± 2.1 µM.

In data set [1], `COCOc1ccc(C2CC(=O)c3ccc(OC)cc3O2)cc1CC=C(C)C` (racemic) [8e, 7-Methoxy-2-(4-(methoxymethoxy)-3-(3-methylbut-2-enyl)phenyl)chroman-4-one] showed an IC50 of 25.1 ± 6.38 µM.

In data set [1], `COc1ccc2c(c1)OC(c1ccc(OC)c(CC=C(C)C)c1)CC2=O` (racemic) [8g, 7-Methoxy-2-(4-methoxy-3-(3-methylbut-2-enyl)phenyl)chroman-4-one] showed an IC50 of 3.67 ± 1.61 µM.

In turn, `COCOc1ccc(/C=C/C(=O)c2ccc(OC)cc2O)cc1CC=C(C)C` [7e, 1-(2-Hydroxy-4-methoxyphenyl)-3-(4-(methoxymethoxy)-3-(3-methylbut-2-enyl)phenyl)prop-2-en-1-one] had an IC50 in data set [1] of more than 261 µM.

As to `COc1ccc(C(=O)CC(O)c2ccc(OC)c(CC=C(C)C)c2)c(O)c1` (stereo not shown) [3-Hydroxy-1-(2-hydroxy-4-methoxyphenyl)-3-(4-methoxy-3-(3-methylbut-2-enyl)phenyl)propan-1-one], the IC50 in data set [1] (setting [5]) was 54.7 ± 11.9 µM.

In data set [1], `COCOc1ccc(C(=O)/C=C/c2ccc(OCOC)c(CC=C(C)C)c2)c(O)c1` [7a, 1-(2-Hydroxy-4-(methoxymethoxy)phenyl)-3-(4-(methoxymethoxy)-3-(3-methylbut-2-enyl)phenyl)prop-2-en-1-one] had an IC50 of more than 243 µM.

Consider `COc1ccc(/C=C/C(=O)c2ccccc2O)cc1CC=C(C)C` [7h, 1-(2-Hydroxyphenyl)-3-(4-methoxy-3-(3-methylbut-2-enyl)phenyl)prop-2-en-1-one], for which the IC50 in data set [1] was more than 310 µM.

Take `COCOc1ccc2c(c1)OC(c1ccc(OC)c(CC=C(C)C)c1)CC2=O` (racemic) [8c, 2-(4-Methoxy-3-(3-methylbut-2-enyl)phenyl)-7-(methoxymethoxy)chroman-4-one]: in data set [1], 7.67 ± 3.27 µM corresponded to half-maximal inhibition (IC50).

On to `CC1=CC(=O)c2ccccc2C1=O` [menadione], for which the IC50 in data set [2] (setting [6]) is 8.3 µM.

On to `O=c1cc(-c2ccc(O)cc2)oc2cc(O)cc(O)c12` [apigenin], for which, in data set [3], the “ED50, concentration inducing 50% of the cells to differentiate” value stood at 10 µM. Besides, in data set [2] (setting [6]), the IC50 worked out at 6 µM.

For `CC(C)=CCc1cc(C2CC(=O)c3ccc(O)cc3O2)ccc1O` (racemic) [8b, 7-Hydroxy-2-(4-hydroxy-3-(3-methylbut-2-enyl)phenyl)chroman-4-one], the melting point fell in the range of 76 to 78 °C.

In data set [1], `COCOc1ccc(C(=O)/C=C/c2ccc(OC)c(CC=C(C)C)c2)c(O)c1` [7c, 1-(2-Hydroxy-4-(methoxymethoxy)phenyl)-3-(4-methoxy-3-(3-methylbut-2-enyl)phenyl)prop-2-en-1-one] returned an IC50 of more than 261 µM.

For the compound `COc1ccc(/C=C/C(=O)c2ccc(O)cc2O)cc1CC=C(C)C` [7d, 1-(2,4-Dihydroxyphenyl)-3-(4-methoxy-3-(3-methylbut-2-enyl)phenyl)prop-2-en-1-one], the melting point was 166 to 168 °C. Also, the IC50 in data set [1] (setting [5]) amounted to 82.9 ± 44.3 µM.

Take `COCOc1ccc2c(c1)OC(c1ccc(OCOC)c(CC=C(C)C)c1)CC2=O` (racemic) [8a, 7-(Methoxymethoxy)-2-(4-(methoxymethoxy)-3-(3-methylbut-2-enyl)phenyl)-chroman-4-one]: in data set [1], the IC50 came out at 13.9 ± 6.09 µM.

Turning to `COc1ccc2c(c1)OC(c1cccc(CC=C(C)C)c1)CC2=O` (racemic) [8i, 7-Methoxy-2-(3-(3-methylbut-2-enyl)phenyl)chroman-4-one], 4.67 ± 2.15 µM corresponded to half-maximal inhibition in data set [1] (IC50).

`COc1ccc(/C=C/C(=O)c2ccc(OC)cc2O)cc1` [7j, 1-(2-Hydroxy-4-methoxyphenyl)-3-(4-methoxyphenyl)prop-2-en-1-one] came in with an IC50 in data set [1] of more than 352 µM.

As for `COc1ccc(C2CC(=O)c3ccccc3O2)cc1CC=C(C)C` (racemic) [8h, 2-(4-Methoxy-3-(3-methylbut-2-enyl)phenyl)chroman-4-one], the IC50 in data set [1] was 12.1 ± 3.24 µM.

Consider Tumor necrosis factor (TNF)-α, for which the “IC50, standard inhibitor in NF-κB luciferase assay” value in data set [4] is 0.015 to 0.025 µg/mL.

As to `O=c1c(-c2ccc(O)cc2)coc2cc(O)cc(O)c12` [genistein], the “ED50, concentration inducing 50% of the cells to differentiate” value in data set [3] stood at 30 µM.
